# Measured values: PMC7525662, “Preclinical dosimetry models and the prediction of clinical doses of novel positron emission tomography radiotracers” (Scientific Reports, 2020)
# Marks after values point to notes of the source that are not given here.
# Experiments:
# Parameters in all cases: species or system Sprague–Dawley rats
# Conditions in all cases: rat, in vivo
# [1] = Residence times normalised to human organ masses, FBP reconstruction
# Experimental: (§1) PET studies were reconstructed using filtered-back projection (FBP) and Mediso’s iterative Tera-Tomo 3D reconstruction algorithm with the following settings: 4 iterations, 6 subsets, full detector model, normal regularization, spike filter on, voxel size 0.4 mm and 400‒600 keV energy window. PET data were corrected for randoms, scatter and attenuation. Time-activity curves for each source organ, whole-body and remainder of the body were plotted. […] Residence times (τ) were determined for each radiotracer in source organs, whole-body and remaining (any activity assigned to the whole-body but not assigned to a source organ). Each preclinical source organ’s τ was determined by calculating the area under its respective time-activity curve (activity normalised to the percentage maximum injected dose as a function of time) using the trapezoid method. […] From each individual animal, eight dosimetry models were constructed from all possible combinations of image reconstruction method (FBP or iterative), τ (non-normalised or normalised to human organ masses), and sex of phantom (male or female). Supplementary table 1. Scaling (normalisation) factors applied to residence times of PET radiotracers in male Sprague-Dawley rats to predict human adult residence times. […] Stabin et al. 2006 ^4); WB: Whole Body.
# [2] = Residence times normalised to human organ masses, iterative reconstruction
# Experimental: as §1
# [3] = OLINDA/EXM predicted clinical doses: adult male phantom, non-normalised τ, FBP
# Experimental: (§2) PET studies were reconstructed using filtered-back projection (FBP) and Mediso’s iterative Tera-Tomo 3D reconstruction algorithm with the following settings: 4 iterations, 6 subsets, full detector model, normal regularization, spike filter on, voxel size 0.4 mm and 400‒600 keV energy window. PET data were corrected for randoms, scatter and attenuation. Time-activity curves for each source organ, whole-body and remainder of the body were plotted. […] Residence times (τ) were determined for each radiotracer in source organs, whole-body and remaining (any activity assigned to the whole-body but not assigned to a source organ). Each preclinical source organ’s τ was determined by calculating the area under its respective time-activity curve (activity normalised to the percentage maximum injected dose as a function of time) using the trapezoid method. […] From each individual animal, eight dosimetry models were constructed from all possible combinations of image reconstruction method (FBP or iterative), τ (non-normalised or normalised to human organ masses), and sex of phantom (male or female).
# [4] = OLINDA/EXM predicted clinical doses: adult female phantom, non-normalised τ, iterative
# Experimental: as §2, with “female). Supplementary table 10. Predicted clinical absorbed organ doses and whole-body effective doses of PET radiotracers using non-normalised (preclinical) adult female source organ residence times from iterative reconstructions.” for “female).”
substance,measurement,setting,value
NOTA-RGDfK [existing Al^18F-labelled NOTA-RGDfK peptide PET radiotracer; precursor NOTA-RGDfK (1)],"Normalised Residence Time (h), Average: Remaining",[1],1.98 h
same,"Normalised Residence Time (h), Average: Remaining",[2],1 h
same,"Effective Dose (mSv/MBq), Average",[3],5.11E-02 mSv/MBq
same,"Estimated Absorbed Dose of Organ, Average: Adrenals",[3],1.14E-02 mGy/MBq
same,"Estimated Absorbed Dose of Organ, Average: Brain",[3],2.47E-03 mGy/MBq
same,"Estimated Absorbed Dose of Organ, Average: Breasts",[3],7.90E-03 mGy/MBq
same,"Estimated Absorbed Dose of Organ, Average: Gallbladder Wall",[3],1.24E-02 mGy/MBq
same,"Estimated Absorbed Dose of Organ, Average: Heart Wall",[3],7.37E-03 mGy/MBq
same,"Estimated Absorbed Dose of Organ, Average: Kidneys",[3],2.41E-02§ mGy/MBq
same,"Estimated Absorbed Dose of Organ, Average: LLI Wall",[3],1.46E-01 ‡ mGy/MBq
same,"Estimated Absorbed Dose of Organ, Average: Liver",[3],7.25E-03 mGy/MBq
same,"Estimated Absorbed Dose of Organ, Average: Lungs",[3],6.07E-03 mGy/MBq
same,"Estimated Absorbed Dose of Organ, Average: Muscle",[3],1.31E-02 mGy/MBq
same,"Estimated Absorbed Dose of Organ, Average: Osteogenic Cells",[3],1.64E-02 mGy/MBq
same,"Estimated Absorbed Dose of Organ, Average: Pancreas",[3],1.22E-02 mGy/MBq
same,"Estimated Absorbed Dose of Organ, Average: Red Marrow",[3],1.21E-02 mGy/MBq
same,"Estimated Absorbed Dose of Organ, Average: Skin",[3],8.75E-03 mGy/MBq
same,"Estimated Absorbed Dose of Organ, Average: Small Intestine",[3],1.97E-02 mGy/MBq
same,"Estimated Absorbed Dose of Organ, Average: Spleen",[3],1.15E-02 mGy/MBq
same,"Estimated Absorbed Dose of Organ, Average: Stomach Wall",[3],1.21E-02 mGy/MBq
same,"Estimated Absorbed Dose of Organ, Average: Testes",[3],1.85E-02 mGy/MBq
same,"Estimated Absorbed Dose of Organ, Average: Thymus",[3],9.71E-03 mGy/MBq
same,"Estimated Absorbed Dose of Organ, Average: Thyroid",[3],9.77E-03 mGy/MBq
same,"Estimated Absorbed Dose of Organ, Average: Total Body",[3],1.30E-02 mGy/MBq
same,"Estimated Absorbed Dose of Organ, Average: ULI Wall",[3],1.65E-02 mGy/MBq
same,"Estimated Absorbed Dose of Organ, Average: Urinary Bladder Wall",[3],4.35E-01 † mGy/MBq
same,Effective Dose,[4],8.22E-02 mSv/MBq
same,"Estimated Absorbed Dose of Organ, Adrenals",[4],9.77E-03 mGy/MBq
same,"Estimated Absorbed Dose of Organ, Brain",[4],1.87E-03 mGy/MBq
same,"Estimated Absorbed Dose of Organ, Breasts",[4],5.49E-03 mGy/MBq
same,"Estimated Absorbed Dose of Organ, Gallbladder Wall",[4],1.07E-02 mGy/MBq
same,"Estimated Absorbed Dose of Organ, Heart Wall",[4],7.79E-03 mGy/MBq
same,"Estimated Absorbed Dose of Organ, Kidneys",[4],4.85E-02§ mGy/MBq
same,"Estimated Absorbed Dose of Organ, LLI Wall",[4],1.68E-01 ‡ mGy/MBq
same,"Estimated Absorbed Dose of Organ, Liver",[4],1.06E-02 mGy/MBq
same,"Estimated Absorbed Dose of Organ, Lungs",[4],5.19E-03 mGy/MBq
same,"Estimated Absorbed Dose of Organ, Muscle",[4],1.30E-02 mGy/MBq
same,"Estimated Absorbed Dose of Organ, Osteogenic Cells",[4],1.30E-02 mGy/MBq
same,"Estimated Absorbed Dose of Organ, Ovaries",[4],4.12E-02 mGy/MBq
same,"Estimated Absorbed Dose of Organ, Pancreas",[4],9.72E-03 mGy/MBq
same,"Estimated Absorbed Dose of Organ, Red Marrow",[4],1.18E-02 mGy/MBq
same,"Estimated Absorbed Dose of Organ, Skin",[4],7.18E-03 mGy/MBq
same,"Estimated Absorbed Dose of Organ, Small Intestine",[4],2.22E-02 mGy/MBq
same,"Estimated Absorbed Dose of Organ, Spleen",[4],9.42E-03 mGy/MBq
same,"Estimated Absorbed Dose of Organ, Stomach Wall",[4],9.44E-03 mGy/MBq
same,"Estimated Absorbed Dose of Organ, Thymus",[4],6.68E-03 mGy/MBq
same,"Estimated Absorbed Dose of Organ, Thyroid",[4],5.90E-03 mGy/MBq
same,"Estimated Absorbed Dose of Organ, ULI Wall",[4],1.78E-02 mGy/MBq
same,"Estimated Absorbed Dose of Organ, Urinary Bladder Wall",[4],9.66E-01 † mGy/MBq
same,"Estimated Absorbed Dose of Organ, Uterus",[4],6.04E-02 mGy/MBq
same,"Estimated Absorbed Dose, Total Body",[4],1.33E-02 mGy/MBq
